Tested on: murine leukemia P388
Test: Antitumor effect to murine leukemia P388 (survival of implanted mice, oral dosing)
Assay type: in vivo
Conditions: for Survival Rate (T/C x 100): orally once daily for 5 consecutive days, female CDF1-SLC mice, P 388 cells implanted subcutaneously
Protocol: Antitumor effect to murine leukemia P388. • Test compounds: 5-FU and compound No.1 (1-(4,4-dimethyl-6-oxo-l-cyclohexenyl)methylcarbamoyl-5-fluorouracil) • Method : 1 x 10^6 leukemia P 388 cells per mouse were implanted subcutaneously to female mice (CDFl-SLC strain, 18-21 g of weight). The control and test group consisted of 3 and 1 mice respectively. The compound No.l and 5-FU were dissolved in 100% dimethylsulfoxide respectively to be adjusted to various concentrations. The solution was administered orally to each mouse once daily for 5 consecutive days, starting 24 hours after the implantation.
Average period in days of survival in the group receiving the compound of this invention (T) and average period in days of survival in the control group (C) were determined to calculate survival rates (T/C x 100%).

CC1(C)CC=C(CNC(=O)n2cc(F)c(=O)[nH]c2=O)C(=O)C1 [Compound No.1, 1-(4,4-dimethyl-6-oxo-l-cyclohexenyl)methylcarbamoyl-5-fluorouracil]
Survival Rate (T/C x 100) (Dose 25 mg/kg/inj): 115% | Survival Rate (T/C x 100) (Dose 50 mg/kg/inj): 129% | Survival Rate (T/C x 100) (Dose 100 mg/kg/inj): 151% | Survival Rate (T/C x 100) (Dose 200 mg/kg/inj): 122% | Survival Rate (T/C x 100) (Dose 400 mg/kg/inj): 71.9% | toxicity compared with 5-FU (conclusion from the dose range in the P388 mouse model, oral): less toxic than 5-FU

O=c1[nH]cc(F)c(=O)[nH]1 [5-FU, 5-Fluorouracil]
Survival Rate (T/C x 100) (Dose 2.7 mg/kg/inj): 101% | Survival Rate (T/C x 100) (Dose 5.3 mg/kg/inj): 103% | Survival Rate (T/C x 100) (Dose 10.5 mg/kg/inj): 103% | Survival Rate (T/C x 100) (Dose 21 mg/kg/inj): 115% | Survival Rate (T/C x 100) (Dose 42 mg/kg/inj): 64.7% | Survival Rate (T/C x 100) (Dose 84 mg/kg/inj): 52.5%

Reference: patent EP0193944A1, “Derivatives of 5-fluorouracil” (Nippon Kayaku Kabushiki Kaisha, priority 1985, dated 1986)
